Test [1] concerns the target T1, Aurora-A (Homo sapiens, UniProt O14965).
T1 construct: 6 histidine tag with spacer region and rTEV protease cleavage site (pFastBac HTc) (N); made in house; host or cells: Spodoptera frugiperda Sf21 insect cells (baculovirus)
T1 sequence (O14965 1-403): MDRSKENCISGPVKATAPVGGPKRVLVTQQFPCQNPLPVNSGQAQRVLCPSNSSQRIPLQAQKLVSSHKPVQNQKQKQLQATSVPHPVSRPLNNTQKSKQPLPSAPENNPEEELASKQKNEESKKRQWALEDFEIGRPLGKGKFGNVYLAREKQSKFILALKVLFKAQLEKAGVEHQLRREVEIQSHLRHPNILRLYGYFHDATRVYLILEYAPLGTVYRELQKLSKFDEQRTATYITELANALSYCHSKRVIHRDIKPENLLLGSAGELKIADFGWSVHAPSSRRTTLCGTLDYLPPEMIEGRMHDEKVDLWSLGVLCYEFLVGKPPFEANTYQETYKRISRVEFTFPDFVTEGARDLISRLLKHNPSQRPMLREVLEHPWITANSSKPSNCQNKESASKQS
Kind of test: In vitro Aurora-A kinase inhibition test. Type of test: biochemical.

The target of test [2] is T2, Aurora-B (Homo sapiens, UniProt Q96GD4).
T2 construct: 6-histidine tag; made in house; host or cells: Spodoptera frugiperda Sf21 insect cells (baculovirus)
Kind of test: In vitro Aurora-B kinase inhibition test. The following applies: recombinant Aurora-B, 33P-ATP peptide substrate filter assay, 60 minutes, room temperature; read-out: concentration giving 50% inhibition of enzyme activity. The format is biochemical. The text has this: (b) In Vitro Aurora-B Kinase Inhibition Test
This assay determines the ability of a test compound to inhibit serine-threonine kinase activity. DNA encoding Aurora-B may be obtained by total gene synthesis or by cloning. This DNA may then be expressed in a suitable expression system to obtain polypeptide with serine-threonine kinase activity. In the case of Aurora-B, the coding sequence was isolated from cDNA by polymerase chain reaction (PCR) and cloned into the pFastBac system in a manner similar to that described above for Aurora-A (i.e. to direct expression of a 6-histidine tagged Aurora-B protein).
For the large scale expression of Aurora-B kinase activity, Sf21 insect cells were grown at 28° C. in TC100 medium supplemented with 10% foetal calf serum (Viralex) and 0.2% F68 Pluronic (Sigma) on a Wheaton roller rig at 3 r.p.m. When the cell density reached 1.2×10^6 cells ml^−1 they were infected with plaque-pure Aurora-B recombinant virus at a multiplicity of infection of 1 and harvested 48 hours later. All subsequent purification steps were performed at 4° C. […]

Test [3] deals with human tumour cell line SW620. Put plainly: In vitro cell proliferation assay (BrdU incorporation). The format is cell-based. Particulars: SW-620, SW620 cells, 48 hours with compound, 2 hour BrdU labelling, read-out: active at (concentration giving 50% inhibition of BrdU incorporation). The text has this: (c) In Vitro Cell Proliferation Assay
This and other assays can be used to determine the ability of a test compound to inhibit the growth of adherent mammalian cell lines, for example the human tumour cell line SW620 (ATCC CCL-227). This assay determines the ability of at test compound to inhibit the incorporation of the thymidine analogue, 5′-bromo-2′-deoxy-uridine (BrdU) into cellular DNA. SW620 or other adherent cells were typically seeded at 1×10^5 cells per well in L-15 media (GIBCO) plus 5% foetal calf serum, 1% L-glutamine (100 μl/well) in 96 well tissue culture treated 96 well plates (Costar) and allowed to adhere overnight. […] The optical density of the wells was then determined at 690 nm wavelength using a Titertek Multiscan plate reader. […]

The structures appear in SMILES notation.

T2 sequence (Q96GD4 whole entry): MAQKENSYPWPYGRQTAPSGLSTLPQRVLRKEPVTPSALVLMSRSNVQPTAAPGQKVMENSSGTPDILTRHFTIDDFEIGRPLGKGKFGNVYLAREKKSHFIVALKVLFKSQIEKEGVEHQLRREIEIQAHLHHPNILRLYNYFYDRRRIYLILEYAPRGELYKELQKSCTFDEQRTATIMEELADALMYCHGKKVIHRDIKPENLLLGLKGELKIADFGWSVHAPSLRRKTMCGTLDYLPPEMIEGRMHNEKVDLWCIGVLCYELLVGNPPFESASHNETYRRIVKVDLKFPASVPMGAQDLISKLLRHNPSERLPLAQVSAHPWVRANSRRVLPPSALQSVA

Regarding `COc1cc2c(Nc3cc(CC(=O)Nc4cccc(F)c4)[nH]n3)ncnc2cc1OCCCN1CCC[C@H]1COP(=O)(O)O` [Compound 5, {(2S)-1-[3-({4-[(5-{2-[(3-fluorophenyl)amino]-2-oxoethyl}-1H-pyrazol-3-yl)amino]-6-methoxyquinazolin-7-yl}oxy)propyl]pyrrolidin-2-yl}methyl dihydrogen phosphate], the IC50 in test [1] came to 5.5 nM; in test [2], 1.6 nM; in test [3] it was 0.1 nM.

For the origin of these results see patent publication US9567358B2, “Methods of treatment using N-(3-fluorophenyl)-2-{3-[(7-{3-[ethyl(2-hydroxyethyl)amino]propoxy}-quinazolin-4-yl)amino]-1H-pyrazol-5-yl}acetamide” (AstraZeneca AB, priority 2002, dated 2017).
